Where two headings read alike, the source gives them in different places.
How the values were obtained:
[1] = Patient 1
[2] = not given; remark: listed apart in the source
[3] = Patient 2

## O=C(CCCc1ccccc1)OCC(COC(=O)CCCc1ccccc1)OC(=O)CCCc1ccccc1 [HPN-100, glyceryl tri-[4-phenylbutyrate]]
[1]; HPN-100 9 mL/day, after overnight fasting
  ammonia: 55 µmol/L
[1]; HPN-100 9 mL/day, midday several hours after lunch
  ammonia: 117 µmol/L
[1]; HPN-100 12 mL/day for one week, after overnight fasting
  ammonia: 9 µmol/L
[1]; HPN-100 12 mL/day for one week, midday
  ammonia: 35 µmol/L
[1]; after one week at HPN-100 12 mL/day
  symptoms (headache, lack of appetite): all symptoms resolved
Patient 7, HPN-100 6 mL BID, during 3 months
  episodes of HE: no episodes of HE
Patient 7, HPN-100 6 mL BID, follow up after 3 months (blood ammonia 85 μmol/L before therapy)
  ammonia: 30 µmol/L
human, in vivo
  unusual symptoms: did not report any unusual symptoms
  unusual symptoms such as dizziness, headache, or nausea: had not experienced any unusual symptoms
[2]; Patient 3, HPN-100 18 mL/day for the past month
  ammonia: 22 µmol/L
[2]; human, in vivo
  PAGN: 259 µg/L
  complaints: did not have any complaints

## sodium phenylbutyrate [NaPBA]
[3]; NaPBA 450 mg/Kg/day for one week
  ammonia: 20 µmol/L
[3]; NaPBA 600 mg/kg per day
  ammonia levels: < 9 µmol/L

From US9561197B2 (Horizon Therapeutics, LLC, priority 2012, dated 2017)
